This is an account of results in patent US20220031687A1, “SYNERGIC PHARMACEUTICAL COMBINATION OF A LEUKOTRIENE-RECEPTOR ANTAGONIST AND AN INVERSE AGONIST OF HISTAMINE HI” (priority 2018, published 2022).

Usually bioavailability stands for dose-corrected exposure relative to a reference, in per cent.

The test system of series [1] is rat tracheal rings. As to the kind of experiment: LTD4-induced contraction of isolated rat tracheal rings. The series is classed as cell-based. An excerpt: . The thoracic cavity was exposed, the neck was dissected, and the trachea was removed 1 mm above the tracheal bifurcation and 1 mm below the thyroid cartilage. The sample was submerged in cold Krebs-Henseleit solution bubbled with 95% 02 and 5% CO2, and 3 mm-thick rings were cut. Each ring was placed in an isolated organ chamber, with its bottom anchored by means of a stainless-steel hook and another hook connected to a tension transducer. The chamber was then filled with Krebs-Henseleit solution at 36° C. bubbled with 95% 02 and 5% CO2, pH 7.4±0.5. Two washes were performed, and a 1.5 g load was applied to each ring and were left to rest for 60 minutes. […]
(§1) The antagonist's effects to their own agonists were analyzed using dose-response curves of the agonists in tracheal rings incubated with different antagonists' concentrations. […]
(§2) The half maximal effective concentration (EC50) of each dose-response curve of the analyzed agonists was obtained using the sigmoid model, wherein: y=a+(b−a)/(1+10^(logx0-x)*x p)). […]
(§3) Data are presented as mean±standard deviation of 2 rings obtained from each of the tracheas of 5 rats. Data were analyzed with the one-way ANOVA test with a Dunett's post-test. EC50's were determined by means of the sigmoid model and the 40 percent of effects was obtained using a linear regression. The t and T values were determined based on a t-values table.

Series [2] relates to rat tracheal rings. As to the kind of experiment: Histamine-induced contraction of isolated rat tracheal rings. Format: cell-based.
Description: Male Wistar rats 300-350 g were sacrificed with a phenobarbital sodium overdose given by intraperitoneal route. The thoracic cavity was exposed, the neck was dissected, and the trachea was removed 1 mm above the tracheal bifurcation and 1 mm below the thyroid cartilage. The sample was submerged in cold Krebs-Henseleit solution bubbled with 95% 02 and 5% CO2, and 3 mm-thick rings were cut. Each ring was placed in an isolated organ chamber, with its bottom anchored by means of a stainless-steel hook and another hook connected to a tension transducer. The chamber was then filled with Krebs-Henseleit solution at 36° C. bubbled with 95% 02 and 5% CO2, pH 7.4±0.5. […]
as §1, §2, §3

For series [3] the following is noted: cited from earlier work.
The conditions of series [4]: cited from earlier work; for bioavailability / time to maximum plasma concentration: oral administration.

Each structure is given as a SMILES string.

With `CCCCC/C=C\C\C=C/C=C/C=C/[C@@H](SC[C@H](N)C(=O)NCC(=O)O)[C@@H](O)CCCC(=O)O` [LTD4, leukotriene D4], the EC50 in the series on rat tracheal rings [1] (cumulative administration, normalised to acetylcholine 0.1 mM = 100%, read-out: EC50 of concentration-dependent contraction of rat tracheal rings) turned out to be 42.6 nM.

Consider `NCCc1c[nH]cn1` [histamine, 2-(4-imidazol) ethylamine], for which, in the series on rat tracheal rings [2] (Rattus norvegicus, cumulative administration, normalised to acetylcholine 0.1 mM = 100%, read-out: EC50 of concentration-dependent contraction of rat tracheal rings), the EC50 turned out to be 3540 nM.

For `CN1CCC(=C2c3ccccc3CC(=O)c3sccc32)CC1` [ketotifen, 4,9-Dihydro-4-(1-methyl-4-piperidylidene)-10H-benzo(4,5)cyclohepta[1,2-b]thiophen-10-one], in series [3], the plasma protein binding was 75%. Further, in series [4] (first 48 hours), the “excreted in urine as metabolites” value is 60 to 70% and the “excreted unaltered in urine” value is given as “Approximately 1%”. Besides, in series [4] (glucuronidation and demethylation), the “first pass effect of the liver metabolism” value was “approximately 50%”. Moreover, in series [4] (in vivo), the “long half-life (biphasic elimination)” value is 21 h, the “short half-life (biphasic elimination)” value is 3 to 5 h and the therapeutic plasma concentrations is 1 to 4 µg/mL. Further, in series [4], the bioavailability entry is listed as “approximately 50%” and the “time to maximum plasma concentration” value was 2 to 4 h. For the same compound, the fecal excretion in series [4] (up to) was 30 to 40%. For the same compound, the “blocking of the contraction induced by the highest histamine concentration” value in the series with rat tracheal rings [2] (100 μM ketotifen) was 65%.

On to `CC(C)(O)c1ccccc1CC[C@@H](SCC1(CC(=O)O)CC1)c1cccc(/C=C/c2ccc3ccc(Cl)cc3n2)c1` [montelukast, 1-[[[(1R)-1-[3-[(1E)-2-(7-chloro-2-quinolinyl)ethenyl]phenyl]-3-[2-(1-hydroxy-1-methylethyl)phenyl]propyl]thio]methyl] cyclopropaneacetic acid], for which the plasma protein binding in series [3] is on record as 99%. Moreover, the biological half-life in series [4] (in vivo) was 2.7-5.5 hours. For the same compound, in series [4], the bioavailability is 64% and the “time to maximum plasma concentration” value is 2 to 4 h. Besides, in the series with rat tracheal rings [1] (30 μM montelukast), the “blocking of the contraction induced by the highest LTD4 concentration” value is on record as 75%.
